Like-named read-outs stand apart in the source and are kept apart here.
What was measured:
[1] = tested on: ENT-70; test: Enterovirus-70 MRC5 Cell Culture Assay; assay type: cell-based, Enterovirus strain 70; details: for EC50: Enterovirus, 24 h, ENT-70 infection of MRC5 cells, XTT, one day
Method: (§1) The Echovirus strain 11 (ECHO-11) and Enterovirus strain 70 (ENT-70) were purchased from American Type Culture Collection (ATCC). Virus stocks were propagated and antiviral assays were performed in MRC5 cells (ATCC). Cells were grown in Minimal Essential Medium with 10% fetal bovine serum.
(§2) The ability of compounds to protect cells against ECHO-11 or ENT-70 infection was measured by the XTT dye reduction method. Briefly, MRC5 cells were infected with ECHO-11 or ENT-70 at a multiplicity of infection (m.o.i.) of 0.0013 (ECHO-11) and 0.0017 (ENT-70) or mock-infected with medium only. Infected or uninfected cells were resuspended at 2×10^4 cells per mL and incubated with appropriate concentrations of drug. One day later, XTT/PMS was added to test plates, and the amount of formazan produced was quantified spectrophotometrically at 450/650 nm. The EC50 was calculated as the concentration of drug that increased the percentage of formazan production in drug-treated, virus-infected cells to 50% of that produced by drug-free, uninfected cells. The 50% cytotoxic dose (CC50) was calculated as the concentration of drug that decreased the percentage of formazan produced in drug-treated, uninfected cells to 50% of that produced in drug-free, uninfected cells. The therapeutic index (TI) was calculated by dividing the CC50 by the EC50.

[2] = tested on: ECHO-11; test: Echovirus-11 MRC5 Cell Culture Assay; assay type: cell-based, Echovirus strain 11; details: for EC50: Echovirus, 24 h, ECHO-11 infection of MRC5 cells, XTT, one day
Method: as §1, §2

[3] = tested on: CVB-3; test: Anticoxsackieviral HI-HeLa Cell Culture Assay, CVB-3; assay type: cell-based, Coxsackie strain B-3; details: 24 h; CVB-3 infection of Hi-HeLa cells, XTT, one day
Method: as §2, with “CVA-21” for “ECHO-11”, “CVB-3” for “ENT-70”, “HI-HeLa” for “MRC5”, “0.05 (CVA-21)” for “0.0013 (ECHO-11)”, “0.08 (CVB-3)” for “0.0017 (ENT-70)”, “4×10^4” for “2×10^4”
(§3) The Coxsackie strains A-21 (CVA-21) and B-3 (CVB-3) were purchased from American Type Culture Collection (ATCC). Virus stocks were propagated and antiviral assays were performed in HI-HeLa cells (ATCC). Cells were grown in Minimal Essential Medium with 10% fetal bovine serum.

[4] = tested on: HI-HeLa cells; test: in vitro; assay type: cell-based; details: human, 24 h
Method: as §2, with “CVA-21” for “ECHO-11”, “CVB-3” for “ENT-70”, “HI-HeLa” for “MRC5”, “0.05 (CVA-21)” for “0.0013 (ECHO-11)”, “0.08 (CVB-3)” for “0.0017 (ENT-70)”, “4×10^4” for “2×10^4”
as §3

[5] = in vitro; assay type: cell-based; details: human, hi-hela cells
Method: as §2, with “CVA-21” for “ECHO-11”, “CVB-3” for “ENT-70”, “HI-HeLa” for “MRC5”, “0.05 (CVA-21)” for “0.0013 (ECHO-11)”, “0.08 (CVB-3)” for “0.0017 (ENT-70)”, “4×10^4” for “2×10^4”
as §3

[6] = tested on: HRV-14; test: Antirhinoviral HI-HeLa Cell Culture Assay (cell protection, XTT), HRV-14; assay type: cell-based, human rhinovirus; details: for TI: CC50/EC50, HRV serotype-14, 2880 min; for EC50: Rhinovirus B, HRV14, 48 h, HRV serotype-14 infected HI-HeLa cells, XTT, two days
How it was run: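 Read-out is XTT/PMS formazan at 450/650 nm, measured two days after compound exposure of HI-HeLa cells (8×10^5 cells/mL) infected at m.o.i. 0.13 or mock-infected. EC50: protection to 50% of compound-free mock-infected signal; CC50: 50% loss in mock-infected cells; TI is their ratio.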

[7] = tested on: MRC5 cells; test: in vitro; assay type: cell-based
Method: as §1, §2

[8] = in vitro; assay type: cell-based; details: human, mrc5 cells
Method: as §1, §2

[9] = in vitro; assay type: cell-based; details: human, hi-hela cells; remark: listed apart in the source
How it was run: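 HI-HeLa cells infected with HRV-14 at m.o.i. 0.13 or mock-infected, incubated with compounds for two days; XTT/PMS formazan read at 450/650 nm. EC50 as concentration restoring formazan to 50% of mock-infected level; CC50 from mock-infected cells; TI = CC50/EC50.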

[10] = tested on: CVA-21; test: Anticoxsackieviral HI-HeLa Cell Culture Assay, CVA-21; assay type: cell-based, Coxsackie strain A-21; details: for EC50: 24 h, CVA-21 infection of Hi-HeLa cells, XTT, one day
Method: as §2, with “CVA-21” for “ECHO-11”, “CVB-3” for “ENT-70”, “HI-HeLa” for “MRC5”, “0.05 (CVA-21)” for “0.0013 (ECHO-11)”, “0.08 (CVB-3)” for “0.0017 (ENT-70)”, “4×10^4” for “2×10^4”
as §3

[11] = molecular target: T1, Rhinovirus 3C protease (RVP) serotype 16 (Human rhinovirus 16, UniProt Q82122); test: Inhibition of Rhinovirus Protease, serotype 16 (FRET assay); assay type: biochemical; details: enzyme start experiments, read-out: kobs/I
T1 construct: Recombinant Rhinovirus 3C proteases from serotypes 14, 16, 2 or 89 were prepared; made in house
T1 sequence (Q82122 1511-1693): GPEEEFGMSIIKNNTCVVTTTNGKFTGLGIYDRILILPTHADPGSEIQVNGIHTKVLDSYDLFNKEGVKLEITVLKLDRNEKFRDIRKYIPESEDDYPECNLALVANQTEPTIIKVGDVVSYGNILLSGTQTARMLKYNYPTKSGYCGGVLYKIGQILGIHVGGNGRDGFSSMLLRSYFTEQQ
Method: (§4) Stock solutions (50 mM, in DMSO) of various compounds were prepared; dilutions were in the same solvent. Recombinant Rhinovirus 3C proteases from serotypes 14, 16, 2 or 89 were prepared by the following standard chromatographic procedures: (1) ion exchange using Q Sepharose Fast Flow from Pharmacia; (2) affinity chromatography using Affi-Gel Blue from Biorad; and (3) sizing using Sephadex G-100 from Pharmacia. Assays contained 2% DMSO, 50 mM tris pH 7.6, 1 mM EDTA, a compound at the indicated concentrations, approximately 1 μM substrate, and 50-100 nM protease. For Ki determinations, the compound and the enzyme were preincubated for 10 minutes at 30° C. prior to addition of the substrate (substrate start). The kobs/I values were obtained from reactions initiated by addition of enzyme rather than substrate. RVP activity is measured in the fluorescence resonance energy transfer assay. The substrate was (N-terminal) DABCYL-(Gly-Arg-Ala-Val-Phe-Gln-Gly-Pro-Val-Gly)-EDANS. In the uncleaved peptide, the EDANS fluorescence was quenched by the proximal DABCYL moiety. When the peptide was cleaved, the quenching was relieved, and activity was measured as an increase in fluorescence signal.
(§5) In the above table, all data is for RVP serotype-14 unless otherwise noted in parentheses. All strains of human rhinovirus (HRV) were purchased from American Type Culture Collection (ATCC), except for serotype 14, which was produced from the infectious cDNA clone constructed and supplied to us by Dr. Roland Rueckert at the Institute for Molecular Virology, University of Wisconsin, Madison, Wis. The column designated INHIB represents the percent inhibition, with the concentration of the compound in μM indicated in parentheses, unless Ki was assigned as designated by (Ki), at 10 minute preincubation with 50 nM RVP prior to addition of substrate was used. The data in the column designated kobs/I was measured from progress curves in enzyme start experiments.

[12] = molecular target: T2, Rhinovirus 3C protease (RVP) serotype-14 (Human rhinovirus 14, UniProt P03303); test: Inhibition of Rhinovirus Protease, serotype 14 (FRET assay); assay type: biochemical; details: for kinact/KI: read-out: kobs/I
T2 construct: Recombinant Rhinovirus 3C proteases from serotypes 14, 16, 2 or 89 were prepared; made in house
T2 sequence (P03303 1538-1719): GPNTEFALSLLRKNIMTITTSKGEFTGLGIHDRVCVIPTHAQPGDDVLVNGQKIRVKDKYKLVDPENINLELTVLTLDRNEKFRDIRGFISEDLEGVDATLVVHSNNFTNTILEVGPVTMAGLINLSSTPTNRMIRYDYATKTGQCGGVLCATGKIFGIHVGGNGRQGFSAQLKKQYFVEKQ
How it was run: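 Recombinant HRV 3C protease (50–100 nM) in 50 mM tris pH 7.6, 1 mM EDTA, 2% DMSO, with ~1 μM DABCYL-GRAVFQGPVG-EDANS FRET substrate; cleavage read as fluorescence increase. Ki: compound and enzyme preincubated 10 min at 30° C before substrate start; kobs/I from enzyme-start progress curves. Values are percent inhibition at stated μM, or Ki.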

[13] = molecular target: T3, Rhinovirus 3C protease (RVP) serotype 2 (Human rhinovirus 2, UniProt P04936); test: Inhibition of Rhinovirus Protease, serotype 2 (FRET assay); assay type: biochemical; details: enzyme start experiments, read-out: kobs/I
T3 construct: Recombinant Rhinovirus 3C proteases from serotypes 14, 16, 2 or 89 were prepared; made in house
T3 sequence (P04936 1508-1690): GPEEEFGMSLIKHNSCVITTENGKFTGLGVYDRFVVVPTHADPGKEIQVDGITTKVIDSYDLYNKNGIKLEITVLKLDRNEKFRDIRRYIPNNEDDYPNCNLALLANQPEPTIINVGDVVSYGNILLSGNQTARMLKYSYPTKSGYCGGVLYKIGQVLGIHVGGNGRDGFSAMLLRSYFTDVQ
Method: as §4, §5

[14] = tested on: HRV 1A; test: Antirhinoviral HI-HeLa Cell Culture Assay (cell protection, XTT), HRV 1A; assay type: cell-based, human rhinovirus
Method: (§6) In the Cell Protection Assay, the ability of compounds to protect cells against HRV infection was measured by the XTT dye reduction method. This method is described in O. S. Weislow, R. Kiser, D. L. Fine, J. Bader, R. H. Shoemaker, and M. R. Boyd, J. Natl. Cancer Inst. 1989, 81, 577-586, which document is entirely incorporated herein by reference.
(§7) HI-HeLa cells were infected with HRV-14 (unless otherwise noted) at a multiplicity of infection (m.o.i.) of 0.13 (virus particles/cell) or mock-infected with medium only. Infected or mock-infected cells were resuspended at 8×10^5 cells per mL and incubated with appropriate concentrations of compounds of formulas I and II. Two days later, XTT/PMS was added to test plates, and the amount of formazan produced was quantified spectrophotometrically at 450/650 nm. The EC50 was calculated as the concentration of compound that increased the percentage of formazan production in compound-treated, virus-infected cells to 50% of that produced by compound-free mock-infected cells. The 50% cytotoxic dose (CC50) was calculated as the concentration of compound that decreased the percentage of formazan produced in compound-treated, mock-infected cells to 50% of that produced in compound-free, mock-infected cells. The therapeutic index (TI) was calculated by dividing the CC50 by the EC50. […]

[15] = tested on: HRV 10; test: Antirhinoviral HI-HeLa Cell Culture Assay (cell protection, XTT), HRV 10; assay type: cell-based, human rhinovirus
Method: as §6, §7

Row | SMILES | EC50 [1] | EC50 [2] | EC50 [3] | CC50 [4] | CC50 at 24 h [5] | TI [6] | EC50 [6] | CC50 ([7]; human, mrc5 cells, 24 h) | CC50 at 24 h [8] | CC50 at 48 h [9] | EC50 [10] | kinact/KI [12] | other results
1 | CCOC(=O)c1ccc(OCCC2CCN(c3ccc(C)nn3)CC2)cc1 [Pirodavir, reference compound] | > 100 µM | > 100 µM | > 100 µM | > 100 µM | > 100 µM | > 300 | 0.03 µM | > 100 µM | > 100 µM | > 10 µM | > 100 µM | – | –
2 | CCOC(=O)/C=C/[C@H](CCC(N)=O)NC(=O)[C@H](Cc1ccc(OC)cc1)N(C)C(=O)[C@H](CC(C)C)NC(=O)SCC [Compound 4] | 0.3 µM | 3.2 µM | – | – | 200 µM | 870 | 0.23 µM | – | 200 µM | 200 µM | 1.8 µM | 43800 M⁻¹ s⁻¹ | TI ([1]; CC50/EC50, ENT-70, 1440 min): 667; kinact/KI [11]: 2010 M⁻¹ s⁻¹; TI ([2]; CC50/EC50, ECHO-11, 1440 min): 62.5; Ki ([12]; RVP serotype-14, 10 minute preincubation with 50 nM RVP prior to addition of substrate, read-out: INHIB (Ki)): 2.9 µM; CC50 [7]: 200 µM; kinact/KI [13]: 541 M⁻¹ s⁻¹; TI ([10]; CC50/EC50, CVA-21): 111
3 | CCOC(=O)/C=C/[C@H](CCC(N)=O)NC(=O)[C@H](Cc1ccccc1)N(C)C(=O)[C@H](CC(C)C)NC(=O)c1cc(C)on1 [Compound 59] | – | – | – | – | – | > 714 | 0.14 µM | – | – | > 100 µM | – | 108000 M⁻¹ s⁻¹ | TI ([14]; CC50/EC50, HRV 1A, 2880 min): > 250; EC50 ([14]; Human rhinovirus sp., HRV 1A infected HI-HeLa cells): 0.4 µM; TI ([15]; CC50/EC50, HRV 10, 2880 min): > 250; EC50 ([15]; Human rhinovirus sp., HRV 10 infected HI-HeLa cells): 0.4 µM
4 | Cc1cc(CCCCCOc2c(Cl)cc(C3=NCCO3)cc2Cl)on1 [WIN 54954, reference compound] | > 100 µM | > 100 µM | > 100 µM | > 100 µM | > 100 µM | > 30 | 2.13 µM | > 100 µM | > 100 µM | > 63 µM | > 100 µM | – | –
